Test results published in ChEMBL document CHEMBL5131439, “Triproamide and Pemukainalides, Cyclic Depsipeptides from the Marine Cyanobacterium Symploca hydnoides” (J Nat Prod, 2022).
pIC50: −log10 of the molar value. Starred links: 1 amine or outer side, 2 acyl side, 3 side chain; linkers in the order of their positions; H or OH if unused. Non-standard residues stand in square brackets, D forms with d. Residues, ends and D or L forms follow the SMILES beside them. X1 = C[C@H](Cc1ccccc1)[C@H](N[*:1])C(=O)[*:2]; X2 = CC(C)[C@@H](N[*:1])[C@@H](C)C(=O)[*:2]; dNMeV = CN[C@@H](C(=O)O)C(C)C; dHiv = CC(C)[C@@H](O)C(=O)O; Lac = C[C@H](O)C(=O)O

These compounds were tested on MOLT-4 (assay: Cytotoxicity against human MOLT-4 cells assessed as reduction in cell viability incubated for 24 hrs by MTT assay). Settings: MOLT-4, 24 h.
Format: functional, cell-based

Compound | pIC50
C#CCCC[C@@H]1OC(=O)[C@H](Cc2ccccc2)NC(=O)[C@H](C(C)C)NC(=O)[C@@H]2CCCN2C(=O)[C@@H]2CCCN2C(=O)[C@H](C)OC(=O)[C@@H](C(C)C)N(C)C(=O)[C@H](C(C)C)NC(=O)C1(C)C | 5.23
CCCCC[C@@H]1OC(=O)[C@H](Cc2ccccc2)NC(=O)[C@H](C(C)C)NC(=O)[C@@H]2CCCN2C(=O)[C@@H]2CCCN2C(=O)[C@H](C)OC(=O)[C@@H](C(C)C)N(C)C(=O)[C@H](C(C)C)NC(=O)C1(C)C | 4.43
C=CCCC[C@@H]1OC(=O)[C@H](Cc2ccccc2)NC(=O)[C@H](C(C)C)NC(=O)[C@@H]2CCCN2C(=O)[C@@H]2CCCN2C(=O)[C@H](C)OC(=O)[C@@H](C(C)C)N(C)C(=O)[C@H](C(C)C)NC(=O)C1(C)C | 5.25
CC(C)[C@@H]1OC(=O)[C@H](C)[C@@H](C(C)C)NC(=O)[C@@H]2CCCN2C(=O)[C@H]([C@H](C)Cc2ccccc2)NC(=O)[C@@H]2CCCN2C(=O)[C@@H](C(C)C)OC(=O)[C@@H]2CCCN2C(=O)[C@@H](C(C)C)N(C)C1=O | 4.64
CC(C)[C@H]1NC(=O)[C@@H]2CCCN2C(=O)[C@H]([C@H](C)Cc2ccccc2)NC(=O)[C@@H]2CCCN2C(=O)[C@@H](C(C)C)N(C)C(=O)[C@@H](C(C)C)OC(=O)[C@@H]2CCCN2C(=O)[C@H](C)OC(=O)[C@@H]1C (cyclo([Lac]P[dHiv][dNMeV]P[X1]P[X2])) | 5.60
